How the values were obtained:
T98 cells = assay: Cell viability assay (PrestoBlue, 5 d) in T98 glioma cells; format: cell-based; conditions: library screen, 5 d treatment, mean of three independent experiments in triplicates, read-out: EC50 T98 ± SEM
Experimental: (§1) The antiproliferative activity of a total of 100 compounds was tested against U87 and T98 glioma cell lines, using TMZ[3] and the Topoisomerase I inhibitor SN-38[18] as positive controls. Cells were treated with the library members for 5 d at three different concentrations (3, 30 and 300 µM) and cell viability determined using the PrestoBlue reagent. Half-maximal effective concentration (EC50) values were calculated from the corresponding dose-response curves and plotted in Fig. 2a as a heatmap to facilitate data analysis, with black meaning no activity and dark to light green to yellow transitions indicating decreasing EC50 values (=increasing potencies). Table 1 of the Suppl. Data contains the corresponding EC50 values ± SEM.
(§2) INK128 and SN-38 were used as positive controls. […] Structurally, these derivatives differed in the size of the alkyl group of the N1 position and the presence or absence of an oxygen atom in that moiety (see Suppl. Data).
(§3) U87 and T98 cells (ATCC) were cultured in DMEM (Gibco), supplemented with 10% (v/v) FBS (Gibco) and 2 mM L-Glutamine (Gibco) in a standard incubator (95% humidity, 5% CO2), and subcultured twice per week through trypsinization. G317 patient-derived glioma cells were established by the Glioma Cellular Genetics Resource (gcgr.org.uk) funded by Cancer Research UK. Ethics approval for use of patient-derived cells and early access confirmation to reagents from the Glioma Cellular Genetics Resource assured that all ethical issues according to UK legislation are fulfilled. G317 were cultured in DMEM/HAMS-F12 (Sigma) supplemented with 1.5 g L^−1 D-(+)-Glucose (Sigma), MEM non-essential aminoacids (Gibco), 0.015% (w/v) Penicillin-Streptomycin (Gibco), 0.012% (w/v) BSA (Gibco), 0.1 mM β-mercaptoethanol (Gibco), B27 (Gibco) and N2 supplements (Gibco). Cells were detached using accutase solution (Sigma) and subcultured once per week. Before adding to the cells, medium was supplemented with 10 ng ml^−1 mouse EGF (Preprotech), 10 ng ml^−1 human FGF (Preprotech), and 1 µg ml^−1 Laminin (Sigma).
(§4) 1 × 10^3 U87 cells/well, 5 × 10^2 T98 cells/well, 1 × 10^4 G317 cells/well, 1 × 10^4 HBVP cells/well and 1 × 10^4 bEnd3 cells/well were seeded in 96-well plates. After 48 h in culture, cells were treated with the inhibitors for 5 d. For GI50 determination, the viability of a triplicate sample of each experiment before treatment was measured with the PrestoBlue Reagent (Invitrogen), to establish a basepoint 0% of growth. […] ZIP Synergy scores were obtained with Synergy finder.[22] Viability percentage, EC50 and GI50 values were obtained using GraphPad Prism version 8.0.0 for Windows, GraphPad Software, San Diego, California USA, www.graphpad.com.

U87 cells = assay: Cell viability assay (PrestoBlue, 5 d) in U87 glioma cells; format: cell-based; conditions: library screen, 5 d treatment, mean of three independent experiments in triplicates, read-out: EC50 U87 ± SEM
Experimental: as §1, §2, §3, §4

Compound | EC50 (T98 cells) [µM] | EC50 (U87 cells) [µM]
COc1cc(-c2nn(CCN3CCC(N4CCCCC4)CC3)c3ncnc(N)c23)ccc1NC(=O)OC(C)(C)C [eCF519] | 3.14 ± 0.331 | 17 ± 2.37
COc1cc(-c2nn(CCN3CCC(N(C)C)CC3)c3ncnc(N)c23)ccc1NC(=O)CC(C)(C)C [eCF526] | > 30 | > 30
COc1cc(-c2nn(CCN3CCC(N(C)C)CC3)c3ncnc(N)c23)ccc1NC(=O)Cc1ccccc1 [eCF530] | 22.8 ± 3.21 | > 30
COc1cc(-c2nn(CCN3CCC(N(C)C)CC3)c3ncnc(N)c23)ccc1NC(=O)CCc1ccccc1 [eCF531] | 11.1 ± 1.1 | 22.6 ± 5.38
COc1cc(-c2nn(CCN3CCC(N(C)C)CC3)c3ncnc(N)c23)ccc1NC(=O)Oc1ccccc1 [eCF532] | 9.1 ± 1.37 | 29.2 ± 3.88
COc1cc(-c2nn(CCN3CCC(N(C)C)CC3)c3ncnc(N)c23)ccc1NC(=O)OCc1ccccc1 [eCF533] | 3.79 ± 0.519 | 8.22 ± 0.671
COc1cc(-c2nn(CCN3CCC(N(C)C)CC3)c3ncnc(N)c23)ccc1NC(=O)Oc1ccccc1 [eCF535] | 16.7 ± 2.8 | > 30
COc1cc(-c2nn(CCN3CCC(N(C)C)CC3)c3ncnc(N)c23)ccc1NC(=O)NC(C)(C)C [eCF537] | 17.6 ± 3.24 | > 30
COc1cc(-c2nn(CCN3CCC(N(C)C)CC3)c3ncnc(N)c23)ccc1NC(=O)NC(C)(C)C [eCF540] | 24.8 ± 2.68 | > 30
CN(C)C1CCN(CCn2nc(-c3cccc(NC(=O)OC(C)(C)C)c3)c3c(N)ncnc32)CC1 [eCF542] | > 30 | > 30
CN(C)C1CCN(CCn2nc(-c3ccc(NC(=O)OC(C)(C)C)cc3)c3c(N)ncnc32)CC1 [eCF543] | 11.4 ± 1.44 | > 30
CN(C)C1CCN(CCn2nc(-c3ccc4c(ccn4C(=O)OC(C)(C)C)c3)c3c(N)ncnc32)CC1 [eCF548] | 6.87 ± 1.77 | 7.18 ± 1.5
CN(C)C1CCN(CCn2nc(-c3ccc(NC(=O)OC(C)(C)C)nc3)c3c(N)ncnc32)CC1 [eCF549] | > 30 | > 30
CN(C)C1CCN(CCn2nc(-c3ccc(CC(=O)OC(C)(C)C)cc3)c3c(N)ncnc32)CC1 [eCF553] | 6.58 ± 2.18 | > 30
CN(C)C1CCN(CCn2nc(-c3ccc(CC(=O)O)cc3)c3c(N)ncnc32)CC1 [eCF556] | > 30 | > 30
COc1ccc(-c2nn(CCN3CCC(N(C)C)CC3)c3ncnc(N)c23)cc1NC(=O)OC(C)(C)C [eCF558] | > 30 | > 30
CN(C)C1CCN(CCn2nc(-c3ccc(NC(=O)OC(C)(C)C)c(O)c3)c3c(N)ncnc32)CC1 [eCF562] | > 30 | > 30
COc1cc(-c2nn(CCN3CCC(N(C)C)CC3)c3ncnc(N)c23)ccc1NCc1ccccc1 [eCF575] | > 30 | > 30
CN(C)C1CCN(CCn2nc(-c3ccc(NCc4ccccn4)cc3)c3c(N)ncnc32)CC1 [eCF576] | > 30 | > 30
COc1cc(-c2nn(CCN3CCC(N(C)C)CC3)c3ncnc(N)c23)ccc1NC(=O)OC(C)(C)C [eCF581] | > 30 | > 30
COc1cc(-c2nn(CCN3CCC(N4CCCC4)CC3)c3ncnc(N)c23)ccc1NC(=O)OC(C)(C)C [eCF598] | 16.4 ± 9.53 | > 30
COc1cc(-c2nn(CCN3CCC(N4CCCCC4)CC3)c3ncnc(N)c23)ccc1NC(=O)OC(C)(C)C [eCF599] | 23 ± 13.4 | > 30
CN(C)C1CCN(CCn2nc(-c3ccc(CC#N)cc3)c3c(N)ncnc32)CC1 [eCF600] | > 30 | > 30
COc1cc(-c2nn(CCN3CCCC(N(C)C)C3)c3ncnc(N)c23)ccc1NC(=O)OC(C)(C)C (stereo not shown) [eCF603] | > 30 | > 30
COc1cc(-c2nn(CCN3CCC(N(C)C)CC3)c3ncnc(N)c23)ccc1NC(=O)N(C)C(C)(C)C [eCF608] | 14.4 ± 7.53 | 21.1 ± 3.02
CNc1ncc2c(-c3ccc(OC)c(OC)c3)nn(CC3CCCC3)c2n1 [eSM104] | 17.5 ± 2.14 | > 30

Reference: article PMC6961122 (Bioorganic & Medicinal Chemistry, 2020)
